According to patent US20230158025A1 (UNIVERSITY OF UTAH RESEARCH FOUNDATION, priority 2020, published 2023):
Where two headings read alike, the source gives them in different places.

Legend:
recombinant mouse GALK1 = recombinant mouse GALK1 (Mus musculus, UniProt Q9R0N0); test: mGALK1 biochemical activity assay (Kinase-Glo Plus, ATP depletion)
Method in brief: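 Recombinant GALK1 (5 nM) with 100 μM galactose; GALK1 turnover read as ATP depletion by Kinase-Glo Plus luminescence. Reaction ran 1 h at room temperature before detection reagent was added.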

recombinant human GALK1 = recombinant human GALK1 (Homo sapiens, UniProt P51570); test: hGALK1 biochemical activity assay (Kinase-Glo Plus, ATP depletion)
Method in brief: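 Turnover is measured as ATP depletion by Kinase-Glo Plus luminescence after a 1 h room-temperature reaction. Compounds span 11 concentrations, 57.4 μM–0.97 nM, in final 20 mM HEPES pH 8.0 with 5 mM MgCl2. The substrate solution held 35 μM ATP; the added solution held 5 nM human or mouse GALK1 and 100 μM galactose.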

[1] = rat microsomal stability (RLM)
[2] = aqueous kinetic solubility
[3] = Tables 2-15, 35 μM ATP, 100 μM galactose, 1 h, bracketed figure after some values is undefined and not reported, read-out: mGALK IC50
[4] = recombinant mouse GALK1, Kinase-Glo Plus ATP depletion, read-out: mGALK
[5] = Tables 2-15, 35 μM ATP, 100 μM galactose, 1 h, bracketed figure after some values (e.g. −1.2) is undefined and not reported, read-out: hGALK IC50
[6] = recombinant human GALK1, Kinase-Glo Plus ATP depletion, read-out: hGALK

recombinant human GALK1, sequence (P51570 whole entry): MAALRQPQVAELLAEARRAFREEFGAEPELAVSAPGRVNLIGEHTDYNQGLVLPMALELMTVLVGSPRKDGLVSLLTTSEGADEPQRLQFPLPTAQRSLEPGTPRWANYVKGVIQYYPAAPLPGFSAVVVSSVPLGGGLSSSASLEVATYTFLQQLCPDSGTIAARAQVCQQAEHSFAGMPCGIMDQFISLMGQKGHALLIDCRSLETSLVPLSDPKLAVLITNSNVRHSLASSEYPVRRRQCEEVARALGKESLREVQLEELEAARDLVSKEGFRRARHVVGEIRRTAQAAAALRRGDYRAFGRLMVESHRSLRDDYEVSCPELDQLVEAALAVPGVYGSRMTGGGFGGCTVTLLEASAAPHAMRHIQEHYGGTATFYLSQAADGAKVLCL
recombinant mouse GALK1, sequence (Q9R0N0 whole entry): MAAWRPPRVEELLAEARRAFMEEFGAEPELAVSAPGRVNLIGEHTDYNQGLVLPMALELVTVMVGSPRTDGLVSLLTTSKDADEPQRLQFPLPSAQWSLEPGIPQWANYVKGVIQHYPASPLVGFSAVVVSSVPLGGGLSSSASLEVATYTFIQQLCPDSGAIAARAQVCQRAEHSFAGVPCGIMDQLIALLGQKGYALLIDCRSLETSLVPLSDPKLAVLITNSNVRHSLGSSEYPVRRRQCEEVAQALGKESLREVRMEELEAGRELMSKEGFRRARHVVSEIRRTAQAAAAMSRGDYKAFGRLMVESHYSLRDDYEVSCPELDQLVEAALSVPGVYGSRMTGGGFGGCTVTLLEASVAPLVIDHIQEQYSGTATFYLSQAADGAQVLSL

IC50 (recombinant mouse GALK1; [3]) [µM] | IC50 (recombinant mouse GALK1; [4]) [µM] | Perm. (1 × 10^−6 cm/sec) (PAMPA permeability; PAMPA) | IC50 (recombinant human GALK1; [5]) [µM] | IC50 (recombinant human GALK1; [6]) [µM] | Metab. Stabil. (m) ([1]; microsomal stability half-life) | Sol. ([2]; aqueous kinetic solubility) [µg/mL] | mGALK IC50 (recombinant mouse GALK1; Tables 2-15, 35 μM ATP, 100 μM galactose, 1 h, bracketed figure after some values is undefined and not reported) | mGALK (μM) (recombinant mouse GALK1; recombinant mouse GALK1, Kinase-Glo Plus ATP depletion) | hGALK IC50 (recombinant human GALK1; Tables 2-15, 35 μM ATP, 100 μM galactose, 1 h, bracketed figure after some values (e.g. −1.2) is undefined and not reported) | hGALK (μM) (recombinant human GALK1; recombinant human GALK1, Kinase-Glo Plus ATP depletion) | Perm. (1 × 10^−6 cm/sec) (PAMPA permeability) | Metab. Stabil. (m) ([1]; microsomal half-life) | Sol. [2] [µg/mL] | Compound
8.63 | 8.63 | 543.4 1 × 10^−6 cm/sec | 4.32 | 4.32 | 8.495 | <1 | – | – | – | – | – | – | – | COC(=O)c1ccc(CNC(=O)C2=C(C)NC(Nc3nc4ccccc4o3)=NC2c2ccccc2Cl)cc1 (stereo not shown) [Compound 223, methyl 4-((2-(benzo[d]oxazol-2-ylamino)-4-(2-chlorophenyl)-6-methyl-1,4-dihydropyrimidine-5-carboxamido)methyl)benzoate]
– | – | 25.8 1 × 10^−6 cm/sec | – | – | 11.91 | <1 | inactive | in- active | inactive | in- active | – | – | – | CC1=C(C(=O)NCc2ccc(Cl)cc2)C(c2ccccc2Cl)N=C(Nc2nc3ccccc3o2)N1 (stereo not shown) [Compound 218, 2-(benzo[d]oxazol-2-ylamino)-4-(2-chlorophenyl)-N-(4-chlorobenzyl)-6-methyl-1,4-dihydropyrimidine-5-carboxamide]
10.9 | 10.9 | 173.5 1 × 10^−6 cm/sec | – | 4.32 | >30 | <1 | – | – | – | – | – | – | – | CC1=C(C(=O)Nc2ccccn2)C(c2ccccc2Cl)N=C(Nc2nc3ccccc3o2)N1 (stereo not shown) [Compound 214, 2-(benzo[d]oxazol-2-ylamino)-4-(2-chlorophenyl)-6-methyl-N-(pyridin-2-yl)-1,4-dihydropyrimidine-5-carboxamide]
19.3 | 19.3 | <1 1 × 10^−6 cm/sec | 12.2 | 12.2 | >30 | >74 | – | – | – | – | – | – | – | CC1=C(C(=O)Nc2cc(C(=O)O)ccn2)[C@@H](c2ccccc2Cl)N=C(Nc2nc3ccccc3o2)N1 [Compound 209, (S)-2-(2-(benzo[d]oxazol-2-ylamino)-4-(2-chlorophenyl)-6-methyl-1,4-dihydropyrimidine-5-carboxamido)isonicotinic acid]
– | 34.3 | – | – | 19.3 | – | – | – | – | – | – | <1 1 × 10^−6 cm/sec | >30 | >84 | CC1=C(C(=O)Nc2cc(C(=O)O)ccn2)C(c2cccc([N+](=O)[O-])c2Cl)N=C(Nc2nc3ccc(F)cc3o2)N1 (stereo not shown) [Compound 63, 2-(4-(2-chloro-3-nitrophenyl)-2-((6-fluorobenzo[d]oxazol-2-yl)amino)-6-methyl-1,4-dihydropyrimidine-5-carboxamido)isonicotinic acid]
21.7 | 21.7 | – | 7.69 | 7.69 | – | – | – | – | – | – | 6.6 1 × 10^−6 cm/sec | >30 | 8.1 | CC1=C(C(=O)Nc2cc(C(=O)O)ccn2)C(c2ccc(-c3ccc(C(F)(F)F)cc3)cc2Cl)N=C(Nc2nc3ccc(F)cc3o2)N1 (stereo not shown) [Compound 68, 2-(4-(3-chloro-4′-(trifluoromethyl)-[1,1′-biphenyl]-4-yl)-2-((6-fluorobenzo[d]oxazol-2-yl)amino)-6-methyl-1,4-dihydropyrimidine-5-carboxamido)isonicotinic acid]
4.32 | 4.32 | 866.5 1 × 10^−6 cm/sec | 3.06 | 3.06 | 5.621 | 46.1 | – | – | – | – | – | – | – | CC1=C(C(=O)NCc2cn(C)cn2)[C@H](c2ccccc2Cl)N=C(Nc2nc3ccccc3o2)N1 [Compound 235, (R)-2-(benzo[d]oxazol-2-ylamino)-4-(2-chlorophenyl)-6-methyl-N-((1-methyl-1H-imidazol-4-yl)methyl)-1,4-dihydropyrimidine-5-carboxamide]
15.3 | 15.3 | >1227 1 × 10^−6 cm/sec | 19.3 | 19.3 | >30 | >67 | – | – | – | – | – | – | – | CC1=C(C(=O)NCCN(C)C)C(c2ccccc2Cl)N=C(Nc2nc3ccccc3o2)N1 (stereo not shown) [Compound 237]
– | 8.63 | 289.5 1 × 10^−6 cm/sec | – | 0.48 | 14.14 | 4.6 | – | – | – | – | – | – | – | CCn1cc(CNC(=O)C2=C(C)NC(Nc3nc4cccc(N)c4o3)=NC2c2ccc(Cl)cc2Cl)cn1 (stereo not shown) [Compound 120, 2-((7-aminobenzo[d]oxazol-2-yl)amino)-4-(2,4-dichlorophenyl)-N-((1-ethyl-1H-pyrazol-4-yl)methyl)-6-methyl-1,4-dihydropyrimidine-5-carboxamide]
9.68 | 9.68 | 109.6 1 × 10^−6 cm/sec | 3.06 | 3.06 | >30 | <1 | – | – | – | – | – | – | – | CC1=C(C(=O)Nc2cc(CO)ccn2)C(c2ccccc2Cl)N=C(Nc2nc3ccccc3o2)N1 (stereo not shown) [Compound 211, 2-(benzo[d]oxazol-2-ylamino)-4-(2-chlorophenyl)-N-(4-(hydroxymethyl)pyridin-2-yl)-6-methyl-1,4-dihydropyrimidine-5-carboxamide]
21.7 | 21.7 | – | – | 21.7 | – | – | – | – | – | – | <1 1 × 10^−6 cm/sec | >30 | >79 | COc1ccc2nc(NC3=NC(c4ccccc4Cl)C(C(=O)Nc4cc(C(=O)O)ccn4)=C(C)N3)oc2c1 (stereo not shown) [Compound 7, 2-(4-(2-chlorophenyl)-6-methyl-2-((6-methoxybenzo[d]oxazol-2-yl)amino)-1,4-dihydropyrimidine-5-carboxamido)isonicotinic acid]
34.3 | 34.3 | – | 6.11 | 6.11 | – | – | – | – | – | – | <1.3 1 × 10^−6 cm/sec | >30 | >76 | CC1=C(C(=O)Nc2cc(C(=O)O)ccn2)[C@@H](c2ccccc2Cl)N=C(Nc2nc3cccc(N)c3o2)N1 [Compound 25, (S)-2-(2-((7-aminobenzo[d]oxazol-2-yl)amino)-4-(2-chlorophenyl)-6-methyl-1,4-dihydropyrimidine-5-carboxamido)isonicotinic acid]
7.69 | 7.69 | – | 0.77 | 0.77 | – | – | – | – | – | – | <1 1 × 10^−6 cm/sec | >30 | 29.9 | CC1=C(C(=O)Nc2cc(-c3nn[nH]n3)ccn2)C(c2ccccc2Cl)N=C(Nc2nc3ccc(F)cc3o2)N1 (stereo not shown) [Compound 41, N-(4-(2H-tetrazol-5-yl)pyridin-2-yl)-4-(2-chlorophenyl)-2-((6-fluorobenzo[d]oxazol-2-yl)amino)-6-methyl-1,4-dihydropyrimidine-5-carboxamide]
4.32 | 4.32 | 462.5 1 × 10^−6 cm/sec | 6.85 | 6.85 | 1.742 | <1 | – | – | – | – | – | – | – | COC(=O)c1ccccc1CNC(=O)C1=C(C)NC(Nc2nc3ccccc3o2)=NC1c1ccccc1Cl (stereo not shown) [Compound 222, methyl 2-((2-(benzo[d]oxazol-2-ylamino)-4-(2-chlorophenyl)-6-methyl-1,4-dihydropyrimidine-5-carboxamido)methyl)benzoate]
– | 19.3 | <1.3 1 × 10^−6 cm/sec | – | 7.69 | >30 | 60.6 | – | – | – | – | – | – | – | CC1=C(C(=O)NCc2cccc(C(=O)O)c2)C(c2ccccc2Cl)N=C(Nc2nc3ccccc3o2)N1 (stereo not shown) [Compound 226, 3-((2-(benzo[d]oxazol-2-ylamino)-4-(2-chlorophenyl)-6-methyl-1,4-dihydropyrimidine-5-carboxamido)methyl)benzoic acid]
– | 10.9 | – | – | 4.32 | – | – | – | – | – | – | 171.11 1 × 10^−6 cm/sec | >30 | <1 | CC1=C(C(=O)Nc2ccccn2)C(c2ccccc2Cl)N=C(Nc2nc3ccc(F)cc3o2)N1 (stereo not shown) [Compound 43, 4-(2-chlorophenyl)-2-((6-fluorobenzo[d]oxazol-2-yl)amino)-6-methyl-N-(pyridin-2-yl)-1,4-dihydropyrimidine-5-carboxamide]
12.2 | 12.2 | <11.8 1 × 10^−6 cm/sec | 6.11 | 6.11 | 16.4271 | <1 | – | – | – | – | – | – | – | CC1=C(C(=O)Nc2ccc(-n3cccn3)cc2)C(c2ccccc2Cl)N=C(Nc2nc3ccccc3o2)N1 (stereo not shown) [Compound 184, N-(4-(1H-pyrazol-1-yl)phenyl)-2-(benzo[d]oxazol-2-ylamino)-4-(2-chlorophenyl)-6-methyl-1,4-dihydropyrimidine-5-carboxamide]
